Where two headings read alike, the source gives them in different places.
Columns and labels:
[1] = target: Ba/F3-EGFR-D770_N771insSVD cells (Homo sapiens, UniProt P00533, DUP768-770, cells depend on it); assay: Ba/F3 cell survival assay, EGFR D770_N771insSVD; assay type: cell-based; details: Cell Titer-Glo, 48 h, without IL-3; Table 4; read-out: BA/F3 (insSVD) IC50
[2] = target: T1, EGFR with insertion SVD between D770 and N771 (mutEGFR D770_N771insSVD) (Homo sapiens, UniProt P00533, DUP768-770); assay: Exon20-Mutant-EGFR(D770_N771insSVD) kinase assay (TR-FRET); assay type: biochemical; details: 2 mM ATP, Table 2
T1 construct: amino acids R669 to A1210; made in house; host or cells: Sf9 insect cells (baculovirus)
T1 sequence (P00533 other isoform, or with tags, fused parts or gaps DUP768-770): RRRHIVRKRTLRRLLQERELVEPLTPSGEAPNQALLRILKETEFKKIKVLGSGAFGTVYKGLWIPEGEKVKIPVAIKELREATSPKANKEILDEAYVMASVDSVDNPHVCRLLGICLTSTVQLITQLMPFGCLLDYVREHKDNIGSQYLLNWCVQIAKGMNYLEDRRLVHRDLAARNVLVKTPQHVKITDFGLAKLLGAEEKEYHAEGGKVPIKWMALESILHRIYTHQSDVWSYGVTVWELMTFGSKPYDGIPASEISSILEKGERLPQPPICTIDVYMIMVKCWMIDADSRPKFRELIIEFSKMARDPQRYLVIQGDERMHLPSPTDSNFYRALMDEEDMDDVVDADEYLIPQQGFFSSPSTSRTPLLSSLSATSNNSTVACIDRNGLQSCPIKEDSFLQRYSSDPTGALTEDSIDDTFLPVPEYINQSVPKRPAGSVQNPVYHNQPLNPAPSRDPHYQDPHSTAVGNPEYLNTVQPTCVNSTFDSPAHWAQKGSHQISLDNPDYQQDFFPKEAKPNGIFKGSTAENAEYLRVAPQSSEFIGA

Ba/F3-EGFR-WT cells = Ba/F3-EGFR-WT cells (Homo sapiens, UniProt P00533); assay: Ba/F3 cell survival assay, wild type EGFR; assay type: cell-based; details: Cell Titer-Glo, 48 h, with 10 ng/mL EGF; Table 4; read-out: BA/F3 (wild type) IC50
Ba/F3-EGFR-WT cells, sequence (P00533 whole entry, looked up, change not shown): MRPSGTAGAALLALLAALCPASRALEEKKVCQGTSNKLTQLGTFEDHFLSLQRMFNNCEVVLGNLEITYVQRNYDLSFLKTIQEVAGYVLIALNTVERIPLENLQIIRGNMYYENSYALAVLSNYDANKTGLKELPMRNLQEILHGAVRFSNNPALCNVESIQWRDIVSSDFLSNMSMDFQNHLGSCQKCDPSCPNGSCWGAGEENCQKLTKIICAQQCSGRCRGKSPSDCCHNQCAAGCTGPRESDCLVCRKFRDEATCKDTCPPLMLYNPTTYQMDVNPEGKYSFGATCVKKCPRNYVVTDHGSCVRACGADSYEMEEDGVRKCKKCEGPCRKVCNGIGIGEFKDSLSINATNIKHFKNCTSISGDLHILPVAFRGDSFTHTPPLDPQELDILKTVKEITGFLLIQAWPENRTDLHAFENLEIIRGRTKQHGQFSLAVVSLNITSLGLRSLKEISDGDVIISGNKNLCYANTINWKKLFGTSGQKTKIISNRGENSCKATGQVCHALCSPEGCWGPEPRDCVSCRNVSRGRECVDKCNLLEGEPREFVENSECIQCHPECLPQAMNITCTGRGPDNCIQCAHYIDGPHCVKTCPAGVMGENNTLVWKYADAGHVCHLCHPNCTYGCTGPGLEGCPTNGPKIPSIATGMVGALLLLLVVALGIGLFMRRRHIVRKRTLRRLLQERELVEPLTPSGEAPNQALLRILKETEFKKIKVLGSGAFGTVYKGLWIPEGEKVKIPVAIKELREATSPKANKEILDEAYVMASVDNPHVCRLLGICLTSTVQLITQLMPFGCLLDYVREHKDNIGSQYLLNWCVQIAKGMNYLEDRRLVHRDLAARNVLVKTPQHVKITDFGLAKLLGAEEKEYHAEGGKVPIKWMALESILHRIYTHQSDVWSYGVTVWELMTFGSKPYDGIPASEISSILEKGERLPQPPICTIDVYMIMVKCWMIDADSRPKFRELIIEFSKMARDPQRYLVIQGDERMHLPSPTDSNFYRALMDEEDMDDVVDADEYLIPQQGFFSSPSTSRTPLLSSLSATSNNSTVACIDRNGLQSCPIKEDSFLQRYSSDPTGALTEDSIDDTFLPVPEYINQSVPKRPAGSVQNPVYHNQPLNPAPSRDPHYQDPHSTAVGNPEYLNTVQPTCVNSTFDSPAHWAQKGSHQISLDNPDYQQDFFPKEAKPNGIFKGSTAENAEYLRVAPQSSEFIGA

Bub1 = target: T2, Bub1 (Homo sapiens, UniProt O43683); assay: Bub1 high ATP kinase assay (TR-FRET); assay type: biochemical; details: 2 mM ATP, Table 3
T2 construct: catalytic domain of human Bub1 (amino acids 704-1085); His6 (N); made in house; host or cells: insect cells (Hi5)
T2 sequence (O43683 704-1085): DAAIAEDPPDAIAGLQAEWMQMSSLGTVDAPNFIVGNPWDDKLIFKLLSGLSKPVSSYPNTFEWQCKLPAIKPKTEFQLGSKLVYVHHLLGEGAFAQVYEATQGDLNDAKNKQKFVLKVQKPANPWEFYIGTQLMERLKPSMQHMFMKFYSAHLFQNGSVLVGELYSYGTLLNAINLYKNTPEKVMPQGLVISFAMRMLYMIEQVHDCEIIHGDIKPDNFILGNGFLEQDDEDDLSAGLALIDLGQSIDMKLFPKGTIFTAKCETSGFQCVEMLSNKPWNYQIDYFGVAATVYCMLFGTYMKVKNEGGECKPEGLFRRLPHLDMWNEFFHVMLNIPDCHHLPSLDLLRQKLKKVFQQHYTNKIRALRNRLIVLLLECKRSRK
Method in brief: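 Enzyme was His6-tagged human Bub1 catalytic domain (aa 704-1085) from Hi5 insect cells, typically about 200 ng/ml, with a biotinylated peptide substrate at high ATP. Reaction ran 60 min at 22 °C, then was stopped with EDTA. Phosphopeptide was detected by TR-FRET (anti-phosphoserine antibody, Eu-labelled anti-mouse IgG, streptavidin-XL665), read as the 665/620 nm emission ratio.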

[3] = Bub1 high ATP (2 mM) IC50, TR-FRET

Ba/F3-EGFR-D770_N771insSVD cells, sequence (P00533 with tags, fused parts or gaps DUP768-770): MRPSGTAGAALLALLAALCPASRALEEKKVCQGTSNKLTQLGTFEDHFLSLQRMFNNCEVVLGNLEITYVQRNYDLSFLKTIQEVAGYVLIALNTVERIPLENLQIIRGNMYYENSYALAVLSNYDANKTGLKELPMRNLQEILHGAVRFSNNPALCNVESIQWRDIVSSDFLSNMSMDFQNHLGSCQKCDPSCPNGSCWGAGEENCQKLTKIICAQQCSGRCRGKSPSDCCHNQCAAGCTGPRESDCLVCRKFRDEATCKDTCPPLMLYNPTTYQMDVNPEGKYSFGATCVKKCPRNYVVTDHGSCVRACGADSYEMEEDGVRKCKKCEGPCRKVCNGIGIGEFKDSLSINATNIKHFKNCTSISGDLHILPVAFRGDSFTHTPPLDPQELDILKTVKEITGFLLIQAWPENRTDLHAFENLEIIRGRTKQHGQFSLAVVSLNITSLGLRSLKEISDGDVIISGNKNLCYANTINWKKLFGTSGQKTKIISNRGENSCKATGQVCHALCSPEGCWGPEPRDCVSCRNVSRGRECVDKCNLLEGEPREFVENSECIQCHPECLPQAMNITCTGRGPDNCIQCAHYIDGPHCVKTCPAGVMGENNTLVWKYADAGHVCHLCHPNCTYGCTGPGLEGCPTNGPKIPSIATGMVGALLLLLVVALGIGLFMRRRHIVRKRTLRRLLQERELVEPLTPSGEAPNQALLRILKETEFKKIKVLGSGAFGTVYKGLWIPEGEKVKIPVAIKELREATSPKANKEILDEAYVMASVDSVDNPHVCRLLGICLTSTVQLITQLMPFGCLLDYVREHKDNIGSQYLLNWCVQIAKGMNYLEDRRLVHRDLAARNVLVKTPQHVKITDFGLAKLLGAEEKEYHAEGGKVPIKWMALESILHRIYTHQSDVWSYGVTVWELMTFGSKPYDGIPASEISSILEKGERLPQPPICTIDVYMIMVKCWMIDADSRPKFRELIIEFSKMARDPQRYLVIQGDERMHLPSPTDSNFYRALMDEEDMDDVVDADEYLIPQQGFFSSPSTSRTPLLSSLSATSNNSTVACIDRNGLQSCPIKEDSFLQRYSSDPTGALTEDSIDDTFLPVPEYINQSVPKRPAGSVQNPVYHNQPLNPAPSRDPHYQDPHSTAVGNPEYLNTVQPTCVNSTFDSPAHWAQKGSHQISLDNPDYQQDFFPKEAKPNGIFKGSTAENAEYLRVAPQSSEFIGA

In the case of `COc1c(Cl)cccc1Nc1c(-c2ccncc2OCC2(C)CCO2)[nH]c2c1C(=O)NCC2CCO` (single isomer, unassigned) [Example 20, 3-(3-chloro-2-methoxyanilino)-7-(2-hydroxyethyl)-2-{3-[(2-methyloxetan-2-yl)methoxy]pyridin-4-yl}-1,5,6,7-tetrahydro-4H-pyrrolo[3,2-c]pyridin-4-one], the GI50 [1] is reported as 122 nM, the “mutEGFR (D770_N771insSVD) kinase assay IC50” value (shortened to “mutEGFR”) [2] is reported as 0.316 nM and the GI50 (Ba/F3-EGFR-WT cells) is reported as 1170 nM. It also gave an IC50 (Bub1; [3]) of 17200 nM.

For `COc1c(F)cccc1Nc1c(-c2ccncc2OC[C@@H]2CCCO2)[nH]c2c1C(=O)NC(C)C2` (single isomer, unassigned) [Example 10], the GI50 [1] was 31.7 nM, the “mutEGFR” value [2] was 0.0957 nM and the GI50 (Ba/F3-EGFR-WT cells) was 382 nM. For the same compound, the IC50 (Bub1; [3]) was > 20000 nM.

In the case of `COc1c(Cl)cccc1Nc1c(-c2ccncc2OCC2CCCCO2)[nH]c2c1C(=O)NCC2C` (single isomer, unassigned) [Example 47, 3-(3-chloro-2-methoxy-anilino)-7-methyl-2-[3-(tetrahydropyran-2-ylmethoxy)-4-pyridyl]-1,5,6,7-tetrahydropyrrolo[3,2-c]pyridin-4-one], the GI50 [1] is reported as 106 nM, the “mutEGFR” value [2] is reported as 0.667 nM and the GI50 (Ba/F3-EGFR-WT cells) is reported as 1990 nM. For the same compound, the IC50 (Bub1; [3]) was 7600 nM.

In the case of `COc1c(Cl)cccc1Nc1c(-c2ccncc2OC[C@@H]2CCCO2)[nH]c2c1C(=O)N[C@H](C)C2` (single isomer, unassigned) [Example 5], the GI50 [1] is reported as 20.2 nM, the “mutEGFR” value [2] is reported as 0.125 nM and the GI50 (Ba/F3-EGFR-WT cells) is reported as 331 nM. For the same compound, the IC50 (Bub1; [3]) was 9700 nM.

With `COC(C)(C)COc1cnccc1-c1[nH]c2c(c1Nc1cccc(F)c1CC(F)F)C(=O)N[C@H](C)C2` [Example 65, (6R)-3-[2-(2,2-difluoroethyl)-3-fluoroanilino]-2-[3-(2-methoxy-2-methylpropoxy)pyridin-4-yl]-6-methyl-1,5,6,7-tetrahydro-4H-pyrrolo[3,2-c]pyridin-4-one] the GI50 [1] was 72 nM, the “mutEGFR” value [2] was 0.24 nM and the GI50 (Ba/F3-EGFR-WT cells) was 795 nM. It also gave an IC50 (Bub1; [3]) of 2520 nM.

In the case of `COc1c(Cl)cccc1Nc1c(-c2ccncc2OCC(C)(C)OC)[nH]c2c1C(=O)NCC2CCO` (centres unmarked) [Example 13, 3-(3-chloro-2-methoxyanilino)-7-(2-hydroxyethyl)-2-[3-(2-methoxy-2-methylpropoxy)pyridin-4-yl]-1,5,6,7-tetrahydro-4H-pyrrolo[3,2-c]pyridin-4-one], the GI50 [1] is reported as 35 nM, the “mutEGFR” value [2] is reported as 0.189 nM and the GI50 (Ba/F3-EGFR-WT cells) is reported as 339 nM. For the same compound, the IC50 (Bub1; [3]) was 3630 nM.

`COc1c(Cl)cccc1Nc1c(-c2ccncc2OCC2COC(C)(C)CO2)[nH]c2c1C(=O)NC1(CCC1)C2` (single isomer, unassigned) [Example 131, 3′-(3-chloro-2-methoxyanilino)-2′-{3-[(5,5-dimethyl-1,4-dioxan-2-yl)methoxy]pyridin-4-yl}-1′,7′-dihydrospiro[cyclobutane-1,6′-pyrrolo[3,2-c]pyridin]-4′(5′H)-one] was tested, and the GI50 [1] was 48.4 nM, the “mutEGFR” value [2] was 0.318 nM and the GI50 (Ba/F3-EGFR-WT cells) was 980 nM. For the same compound, the IC50 (Bub1; [3]) was 1670 nM.

In the case of `COc1c(Cl)cccc1Nc1c(-c2ccncc2OCC2COC(C)(C)CO2)[nH]c2c1C(=O)NCC2C` (single isomer, unassigned) [Example 97, 3-(3-chloro-2-methoxy-anilino)-2-[3-[(5,5-dimethyl-1,4-dioxan-2-yl)methoxy]-4-pyridyl]-7-methyl-1,5,6,7-tetrahydropyrrolo[3,2-c]pyridin-4-one], the GI50 [1] is reported as 32.1 nM, the “mutEGFR” value [2] is reported as 0.796 nM and the GI50 (Ba/F3-EGFR-WT cells) is reported as 1130 nM. The IC50 (Bub1; read-out: Bub1 high ATP (2 mM) IC50, TR-FRET) was > 20000 nM.

In the case of `C[C@@H]1Cc2[nH]c(-c3ccncc3OC[C@@H]3CCCO3)c(Nc3cccc(F)c3CC(F)F)c2C(=O)N1` [Example 63, (6R)-3-[2-(2,2-difluoroethyl)-3-fluoroanilino]-6-methyl-2-(3-{[(2S)-oxolan-2-yl]methoxy}pyridin-4-yl)-1,5,6,7-tetrahydro-4H-pyrrolo[3,2-c]pyridin-4-one], the GI50 [1] is reported as 117 nM, the “mutEGFR” value [2] is reported as 0.211 nM and the GI50 (Ba/F3-EGFR-WT cells) is reported as 1170 nM. It also gave an IC50 (Bub1; [3]) of 14100 nM.

In the case of `Cc1c(Cl)cccc1Nc1c(-c2ccncc2OCC2COC(C)(C)CO2)[nH]c2c1C(=O)NCC2C` (centres unmarked) [Example 62, 3-(3-chloro-2-methyl-anilino)-2-[3-[(5,5-dimethyl-1,4-dioxan-2-yl)methoxy]-4-pyridyl]-7-methyl-1,5,6,7-tetrahydropyrrolo[3,2-c]pyridin-4-one], the GI50 [1] is reported as 52.6 nM, the “mutEGFR” value [2] is reported as 0.329 nM and the GI50 (Ba/F3-EGFR-WT cells) is reported as 1100 nM. For the same compound, the IC50 (Bub1; [3]) was 8030 nM.

In the case of `CCc1c(Cl)cccc1Nc1c(-c2ccncc2OC[C@@H]2CN(C)CCO2)[nH]c2c1C(=O)N[C@H](C)C2` [Example 91, (6R)-3-(3-chloro-2-ethylanilino)-6-methyl-2-(3-{[(2S)-4-methylmorpholin-2-yl]methoxy}pyridin-4-yl)-1,5,6,7-tetrahydro-4H-pyrrolo[3,2-c]pyridin-4-one], the GI50 [1] is reported as 30.2 nM, the “mutEGFR” value [2] is reported as 0.334 nM and the GI50 (Ba/F3-EGFR-WT cells) is reported as 556 nM. For the same compound, the IC50 (Bub1; [3]) was > 20000 nM.

For `COc1c(Cl)cccc1Nc1c(-c2ccncc2OCC(C)OC)[nH]c2c1C(=O)N[C@H](C)C2` (mixture of isomers) [Example 80, (6R)-3-(3-chloro-2-methoxy-anilino)-2-[3-(2-methoxypropoxy)-4-pyridyl]-6-methyl-1,5,6,7-tetrahydropyrrolo[3,2-c]pyridin-4-one], the GI50 [1] was 19.9 nM, the “mutEGFR” value [2] was 0.131 nM and the GI50 (Ba/F3-EGFR-WT cells) was 628 nM. The IC50 (Bub1; [3]) was 2670 nM.

In the case of `COc1c(Cl)cccc1Nc1c(-c2ccncc2OC[C@@H]2CCCO2)[nH]c2c1C(=O)N[C@@H](C)C2` (single isomer, unassigned) [Example 4], the GI50 [1] is reported as 95.3 nM, the “mutEGFR” value [2] is reported as 0.113 nM and the GI50 (Ba/F3-EGFR-WT cells) is reported as 883 nM. The IC50 (Bub1; [3]) was 3010 nM.

For `COc1c(Cl)cccc1Nc1c(-c2ccncc2OCC2OCCC2(F)F)[nH]c2c1C(=O)N[C@H](C)C2` (single isomer, unassigned) [Example 73], the GI50 [1] was 55.3 nM, the “mutEGFR” value [2] was 0.179 nM and the GI50 (Ba/F3-EGFR-WT cells) was 643 nM. It also gave an IC50 (Bub1; [3]) of 4060 nM.

For `COc1c(Cl)cccc1Nc1c(-c2ccncc2OCC2COCCO2)[nH]c2c1C(=O)NC1(CCC1)C2` (single isomer, unassigned) [Example 124, 3-(3-chloro-2-methoxy-anilino)-2-[3-(1,4-dioxan-2-ylmethoxy)-4-pyridyl]spiro[5,7-dihydro-1H-pyrrolo[3,2-c]pyridine-6,1′-cyclobutane]-4-one], the GI50 [1] was 26 nM, the “mutEGFR” value [2] was 0.315 nM and the GI50 (Ba/F3-EGFR-WT cells) was 513 nM. For the same compound, the IC50 (Bub1; [3]) was 479 nM.

In the case of `COc1c(Cl)cccc1Nc1c(-c2ccncc2OCC2COCCO2)[nH]c2c1C(=O)NCC2C` (single isomer, unassigned) [Example 36, 3-(3-chloro-2-methoxy-anilino)-2-[3-(1,4-dioxan-2-ylmethoxy)-4-pyridyl]-7-methyl-1,5,6,7-tetrahydropyrrolo[3,2-c]pyridin-4-one], the GI50 [1] is reported as 75.3 nM, the “mutEGFR” value [2] is reported as 0.331 nM and the GI50 (Ba/F3-EGFR-WT cells) is reported as 963 nM. The IC50 (Bub1; [3]) was 4900 nM.

`COc1c(Cl)cccc1Nc1c(-c2ccncc2OC[C@@H]2CCCO2)[nH]c2c1C(=O)NCC2C` (mixture of isomers) [Example 30, 3-(3-chloro-2-methoxy-anilino)-7-methyl-2-(3-{[(2S)-tetrahydrofuran-2-yl]methoxy}-4-pyridyl)-1,5,6,7-tetrahydropyrrolo[3,2-c]pyridin-4-one] was tested, and the GI50 [1] was 44 nM, the “mutEGFR” value [2] was 0.147 nM and the GI50 (Ba/F3-EGFR-WT cells) was 606 nM. For the same compound, the IC50 (Bub1; [3]) was 11300 nM.

From patent US20230064983A1 (priority 2020, published 2023)
